Experiment: gradient 5% acetonitrile 3 min, to 50% in 2 min, to 85% in 15 min, held 3 min, 100 µL/min
Conditions: column: Zorbax Extend-C18 2.1 x 50 mm; eluents: water / acetonitrile, 0.1% formic acid
Method in brief: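 Values are retention times taken from adduct peaks that software picked and an analyst inspected. The pure standards were run as mixtures of ~100 molecules on HPLC linked to a quadrupole time-of-flight mass spectrometer, in positive and negative ionization mode. A Zorbax Extend-C18 column (2.1 × 50 mm, 1.8 μm) was used at 100 μL/min with water and acetonitrile, each including 0.1% formic acid.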

Row | Structure (SMILES) | RP-LC retention time
1 | O=C(Nc1cc(-c2cccs2)no1)c1cc(F)cc(F)c1 | 1010 s
2 | COc1cccc(CN2CC(=O)N(Cc3ccc(F)cc3)c3ccccc3S2(=O)=O)c1 | 1100 s
3 | Cc1noc2ncn(CC(=O)NCCc3ccccc3Cl)c(=O)c12 | 792 s
4 | N#Cc1cccc(NC(=O)C2CCN(S(=O)(=O)c3ccc4c(c3)NC(=O)CO4)CC2)c1 | 763 s
5 | CCN1c2ccc(F)cc2C(=O)NC12CCN(C(=O)c1cc(OC)cc(OC)c1)CC2 | 782 s
6 | CCn1c(=O)c(C)nc2cc(-c3noc(-c4ccccc4C)n3)ccc21 | 1190 s
7 | COC(=O)c1cnc2nc(C)ccc2c1Nc1cc(OC)ccc1OC | 667 s
8 | O=C1NC(C(=O)NCC2CCCCC2)Cn2cccc21 (stereo unspecified) | 681 s
9 | Cc1ccc(-c2ccc(-n3nc(C)c(S(=O)(=O)N4CCOCC4)c3C)nn2)cc1C | 1060 s
10 | CC(C)NC(=O)CN1CCN(C(=O)Nc2ccc(Cl)cc2)CC1=O | 669 s
11 | c1ccc(-c2nc3ccccn3c2Nc2ccc3c(c2)OCO3)cc1 | 677 s
12 | COc1ccccc1-c1cc2c(=O)n(Cc3nc(-c4cccc(OC)c4OC)oc3C)ccn2n1 | 1060 s
13 | COc1ccc(C2CC(=O)N(c3cccc(Cl)c3)C(=O)C2)cc1OC | 881 s
14 | Cc1ccc(-n2ccnc2SCc2nc(-c3cccc(Br)c3)no2)cc1 | 1080 s
15 | COc1ccc(CNC(=O)Nc2ccc(-c3nc(-c4ccccc4)co3)cc2)cc1 | 1050 s
16 | Cc1nn(C(C)C(=O)Nc2cccc(Cl)c2)c(=O)c2c(-n3cccc3)n(-c3ccccc3)nc12 (stereo unspecified) | 1200 s
17 | CCc1cccc(C)c1NC(=O)C1CCCN(S(=O)(=O)c2cc(-c3noc(C)n3)cs2)C1 (stereo unspecified) | 995 s
18 | CC(C)CN1C(=O)c2cccn2CC1CNC(=O)c1n[nH]c(=O)c2ccccc12 (stereo unspecified) | 689 s
19 | Cc1ccc(S(=O)(=O)N2CCc3nc(NC(=O)c4ccnn4C)sc3C2)cc1 | 860 s
20 | c1ccc2c(CC3=NCCN3)cccc2c1 | 619 s
21 | Cc1cc(C)cc(NS(=O)(=O)c2ccc(-c3nnc(C4CCC4)o3)o2)c1 | 996 s
22 | CCOc1cc(-c2ccccc2)nc2ccc(NS(=O)(=O)c3ccc(OC)c(OC)c3)cc12 | 730 s

Further lines, results first:

Row | RP-LC retention time | Structure (SMILES)
23 | 756 s | CCN(CC)CCNC(=O)c1cn(C)nc1S(=O)(=O)N1CCN(c2cc(Cl)ccc2C)CC1
24 | 744 s | CC(=O)Nc1ccc(-n2cnc(C(=O)NC(C)CCc3ccccc3)c2)nc1 (stereo unspecified)
25 | 686 s | CCCCN1CCN(c2ccc(-c3csc(S(=O)(=O)N4CCCCC4)c3)nn2)CC1
26 | 580 s | CCN1CCN(C(=O)Cn2c3ccccc3c3cnn(C)c(=O)c32)CC1
27 | 1000 s | CCc1nc(-c2cccc(-c3noc(CNC(=O)Cc4ccccc4)n3)c2)cs1
28 | 691 s | COCCOC1CCOC2(CCN(C(=O)c3cccs3)CC2)C1 (stereo unspecified)
29 | 856 s | Cc1ccc(NC(=O)N2CCC(n3c(C(F)(F)F)nc4cccnc43)CC2)cc1
30 | 609 s | Cc1cnc(CC2CCN(C(=O)N(C)C)C2)n1Cc1ccccc1 (stereo unspecified)
31 | 809 s | O=C(Cn1c(-c2cccs2)cc2cc(Cl)ccc21)N1CCN(c2ccccn2)CC1
32 | 665 s | Cc1cc(=O)n(CC(=O)N2CCCc3ccccc32)c(N2CCCC2)n1
33 | 590 s | CN(C)C(=O)C1CCc2nc(N3CCN(C(=O)C4CCC4)CC3)sc2C1 (stereo unspecified)
34 | 634 s | CNC(=O)C1CCCN(c2nc3ncn(CC(=O)Nc4ccccc4)c(=O)c3s2)C1 (stereo unspecified)
35 | 857 s | O=C(C1=NN(CCc2ccccc2)c2ccccc2S1(=O)=O)N1CCCC1
36 | 715 s | CC1CCN(Cc2csc(N3CCN(C(=O)CCCc4ccccc4)CC3)n2)CC1
